Source: patent publication US20090264421A1 (priority 2007, published 2009)

How the values were obtained:
A549 cells = assay type: cell-based, human; conditions: within 1-2 minutes
From the text: Measurement of intra- and extracellular chaetocin levels: Tumor cells treated with indicated chaetocin concentrations were washed twice with ice cold PBS, immediately solubilized in 0.5 M perchloric acid, and evaluated “real time” via HPLC using Beckman System Gold Nouveau Software with a dual pump 125 gradient pump system, 507e autosampler, 168 diode array detector, and Beckman Ultrasphere ODS column (4.6 mm×[…]×7 μm) using the following elution profile: 100% water to 100% methanol linear gradient over 40 minutes, followed by a 10 minute period of elution with 100% methanol. Quantitation was accomplished using a standard curve of peak areas derived from analogous HPLC data using varying concentrations of chaetocin.

[1] = tested on: patient CD138+ myeloma cells and CD138- bone marrow cells; assay type: cell-based, human; conditions: 10 μM for 20 minutes, corrected for average cell volumes, 4 patients
Method: FIG. 7. Chaetocin induces oxidative stress in A549 cells without appreciable depletion of intracellular reduced glutathione levels, while the selective cytotoxicity of chaetocin in freshly collected myeloma cells appears to be attributable to their increased sensitivity to oxidative stressors. […] Chaetocin-induced increased oxidative species are attenuated by co-treatment with 10 mM NAC (C). D. Summary of results from FACS indicating changes of oxidative species induced in response to various treatments. Results shown are representative of three independent FACS experiments as described in the text; *p<0.05, **p<0.01. E. Effects of chaetocin or hydrogen peroxide (in comparison to diluent) on ROS (superoxide) levels in U266 myeloma cells as assessed using FACS analyses and hydroethidium as an ROS-sensitive FACS probe. Error bars indicate one sample standard deviation, results replicated in triplicate; ***p<0.001. […] Glutathione levels were assessed by spectrophotometric assay as described below. […] Cells were treated with 10 μM chaetocin for 20 minutes prior to assay, and calculated intracellular chaetocin levels were measured by HPLC with adjusted for differences in average cell volume (calculated from measured cell radii ascertained via light microscopy). […]

thioredoxin = molecular target: T1, thioredoxin (Escherichia coli, UniProt P0AA25); test: Thioredoxin activity assay (insulin precipitation); assay type: biochemical, E. coli; conditions: higher chaetocin concentrations; read-out: IC50, Trx activity inhibition
T1 construct: purchased Promega (Madison, Wis.)
Method: (§1) HeLa cells were obtained from ATCC.
Thioredoxin Activity Assay: The 100 μL reaction contained 100 mM potassium phosphate (pH 7.0), 2 mM EDTA, 0.13 mM bovine insulin, 3.9 μM E. coli thioredoxin and chaetocin as indicated. The reaction was initiated by addition of 0.33 mM DTT, and turbidity was monitored at 620 nm in a plate reader. The initial linear rate was calculated based on the slope of the line after an increase in absorbance (indicating precipitation of insulin) started to occur.

thioredoxin reductase = molecular target: T2, thioredoxin reductase (Rattus norvegicus, UniProt O89049); test: Thioredoxin reductase activity assay (gel-based oxidation state of thioredoxin method); assay type: biochemical
T2 construct: rat liver thioredoxin reductase; purchased Sigma (St. Louis, Mo.); host or cells: rat liver
T2 sequence (O89049 1-499): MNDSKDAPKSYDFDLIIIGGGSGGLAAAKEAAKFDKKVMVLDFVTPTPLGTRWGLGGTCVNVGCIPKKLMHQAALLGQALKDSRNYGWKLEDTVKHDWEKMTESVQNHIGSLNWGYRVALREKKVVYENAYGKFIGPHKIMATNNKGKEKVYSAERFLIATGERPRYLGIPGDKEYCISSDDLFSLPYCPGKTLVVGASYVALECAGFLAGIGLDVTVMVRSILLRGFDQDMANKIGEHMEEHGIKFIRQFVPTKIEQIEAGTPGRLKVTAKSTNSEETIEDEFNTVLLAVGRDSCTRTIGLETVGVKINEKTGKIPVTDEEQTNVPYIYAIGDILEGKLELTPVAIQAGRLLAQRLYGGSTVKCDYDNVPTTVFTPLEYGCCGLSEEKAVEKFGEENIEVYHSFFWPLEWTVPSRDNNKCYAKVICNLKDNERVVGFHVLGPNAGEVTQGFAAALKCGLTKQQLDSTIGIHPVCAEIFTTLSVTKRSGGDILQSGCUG
Method: as §1
Thioredoxin Reductase Activity Assay (gel-based oxidation state of thioredoxin method): Reduction of thioredoxin by thioredoxin reductase was measured by the decrease in electrophoretic mobility caused by covalent modification of thioredoxin (by AMS) when the disulfide is reduced. […] At the indicated time, a 5 μL sample was removed and immediately added to 5 μL of 30 mM AMS in TE buffer (pH 7.5). The AMS was allowed to react (15 minutes at 22° C.) with reduced thioredoxin sulfhydryl groups, then the samples were mixed with non-reducing sample buffer and were electrophoresed on 18% Tris-HCl SDS-PAGE gels. The gels were stained with Coomassie blue and bands were imaged and quantitated using a Syngene InGenius gel documentation system (Frederick, Md.).

TrxR1 = molecular target: T3, TrxR1 (Rattus norvegicus, UniProt O89049); assay type: biochemical; parameters: rat liver thioredoxin reductase; purchased Sigma (St. Louis, Mo.); conditions: mass spectroscopy; data not shown
T3 sequence (O89049 1-499): T2 sequence (O89049 1-499)
Method: Samples were allowed to react at 22° C. for 15 min and then processed for analysis by desalting and fractionating using C18 ZipTips (Millipore Corporation, Bedford, Mass.). For the DTT/chaetocin reaction, the reaction proceeded for 20 min and was then spun down to remove precipitated insulin before loading onto ZipTips. ZipTips were conditioned with 60% acetonitrile:39% water:1% acetic acid and equilibrated with 1% acetic acid. Samples were acidified with glacial acetic acid and loaded onto an equilibrated ZipTip and washed with 1% acetic acid. Fractions were step-eluted off the ZipTip using 10 μl of 1% acetic acid in water containing 20, 30, 40, or 60% acetonitrile. Collected fractions were injected by loop injection (2 μl) directly into the mass spectrometer using a mobile phase of 30% acetonitrile:69% water:1% acetic acid at 5 μl/min. Mass spectra were collected on an Agilent Technologies LC/MSD-TOF mass spectrometer in positive electrospray ionization mode over a m/z range of 400 to 1500. The capillary, fragmentor, skimmer, and OCT RF voltages (3500, 185, 60, 200 volts, respectively) were optimized to enhance signal and minimize instrument fragmentation.

T1 sequence (P0AA25 whole entry): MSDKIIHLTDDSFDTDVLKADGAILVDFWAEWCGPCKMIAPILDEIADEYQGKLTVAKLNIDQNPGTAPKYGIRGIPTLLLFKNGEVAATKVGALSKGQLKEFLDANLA

## CN1C(=O)[C@@]23C[C@]4([C@]56C[C@@]78SS[C@@](CO)(C(=O)N7[C@H]5Nc5ccccc56)N(C)C8=O)c5ccccc5N[C@@H]4N2C(=O)[C@]1(CO)SS3 [chaetocin]
A549 cells
  intracellular accumulation relative to applied extracellular concentration: 10 fold
[1]
  intracellular accumulation in CD138- leukocytes versus CD138+ myeloma cells: no indication of lessened intracellular accumulation
thioredoxin
  IC50: ~90 µM
Thioredoxin reductase; gel-based, AMS modification
  inhibition of reduction of thioredoxin by thioredoxin reductase: inhibit the ability of TrxR1 to reduce Trx
Thioredoxin reductase; initial linear portion of the reaction, read-out: IC50, reduction of thioredoxin by thioredoxin reductase
  IC50: 4 µM
TrxR1
  covalent adduct with TrxR1: no evidence of a covalent chaetocin-TrxR1 adduction
